Assay results: ChEMBL document CHEMBL4665882, “Allosteric kidney-type glutaminase (GLS) inhibitors with a mercaptoethyl linker” (Bioorg Med Chem, 2020)

Tests used:
[1] = target: T1, Glutaminase kidney isoform, mitochondrial (Homo sapiens, UniProt O94925); assay: Allosteric inhibition of human kidney glutaminase using [3H]-Glutamine as substrate in presence of inhibitor incubated for 45 mins by Perkin Elmer based assay
T1 sequence (O94925 whole entry): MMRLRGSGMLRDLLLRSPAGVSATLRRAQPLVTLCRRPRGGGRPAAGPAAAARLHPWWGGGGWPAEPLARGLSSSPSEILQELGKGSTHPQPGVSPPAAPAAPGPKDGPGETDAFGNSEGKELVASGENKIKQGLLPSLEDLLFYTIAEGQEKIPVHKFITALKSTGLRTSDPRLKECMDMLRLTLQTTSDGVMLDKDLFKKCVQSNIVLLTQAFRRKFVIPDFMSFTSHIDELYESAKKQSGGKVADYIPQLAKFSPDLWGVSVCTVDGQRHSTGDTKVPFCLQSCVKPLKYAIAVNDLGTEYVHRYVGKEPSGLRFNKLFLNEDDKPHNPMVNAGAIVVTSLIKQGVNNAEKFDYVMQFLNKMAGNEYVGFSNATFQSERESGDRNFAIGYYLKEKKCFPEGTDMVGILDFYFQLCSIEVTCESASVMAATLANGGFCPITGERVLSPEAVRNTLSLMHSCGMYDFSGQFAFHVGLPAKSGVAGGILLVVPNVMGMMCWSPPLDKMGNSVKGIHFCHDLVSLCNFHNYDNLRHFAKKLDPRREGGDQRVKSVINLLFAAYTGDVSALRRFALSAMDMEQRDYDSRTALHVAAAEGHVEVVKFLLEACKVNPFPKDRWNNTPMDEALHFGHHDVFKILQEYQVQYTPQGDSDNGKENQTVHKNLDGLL

[2] = Aqueous solubility of compound in PBS 7.4 at 5 mg/ml incubated for 24 hrs by LC-MS-based shake-flask method; assay type: physicochemical; conditions: buffer, pH 7.4, 24 h
[3] = Inhibition of glutaminase (unknown origin) preincubated for 60 mins; design: species or system Homo sapiens
[4] = Metabolic stability in mouse liver microsomes assessed as compound remaining after 60 mins incubation in presence of NADPH by LC-MS/MS analysis; assay type: ADME, Microsome; conditions: 1 h
[5] = Inhibition of human recombinant glutaminase assessed as reduction in glutamate production in presence of NADPH-dependent glutamate dehydrogenase preincubated 60 mins by coupled biochemical assay

Compound | IC50 [1] [nM] | also measured
O=C(Cc1ccccc1)Nc1ccc(CCSc2nnc(NC(=O)Cc3ccccc3)s2)nn1 | 30 | solubility [2]: Insoluble
O=C(Cc1ccccc1)Nc1nnc(CSCc2nnc(NC(=O)Cc3ccccc3)s2)s1 | > 100000 | IC50 [3]: > 20000 nM
O=C(Cc1ccccc1)Nc1nnc([C@H]2CCC[C@H](c3nnc(NC(=O)Cc4ccccc4)s3)C2)s1 |  | IC50 [3]: < 100 nM
O=C(Cc1ccccn1)Nc1nnc(CCSc2nnc(NC(=O)Cc3ccccc3)s2)s1 | 110 | 
O=C(Cc1ccccc1)Nc1nnc(CCSc2nnc(NC(=O)Cc3ccccc3)s2)s1 | 50 | Stabilty [4]: 87%
O=C(Cc1cccc(OC(F)(F)F)c1)Nc1ccc(CCCCc2nnc(NC(=O)Cc3ccccn3)s2)nn1 |  | IC50 [5]: < 50 nM
O=C(Cc1ccccc1)Nc1nnc(CCSc2nnc(NC(=O)Cc3ccccn3)s2)s1 | 100 | 
Nc1nnc(SCCc2ccc(NC(=O)Cc3ccccc3)nn2)s1 | 6800 | 

Continued, in another order:

IC50 [1] [nM] | Compound | also measured
1600 | Nc1nnc(CCSc2nnc(NC(=O)Cc3ccccc3)s2)s1 | 
3000 | Nc1nnc(SCCc2nnc(NC(=O)Cc3ccccc3)s2)s1 | 
280 | O=C(Cc1ccccc1)Nc1nnc([C@H]2CCC[C@H](c3nnc(NC(=O)Cc4ccccc4)s3)C2)s1 (racemic) | 
140 | O=C(Cc1cccc(OC(F)(F)F)c1)Nc1nnc(CCSc2nnc(NC(=O)Cc3ccccc3)s2)s1 | 
14000 | Nc1nnc(CCSc2ccc(NC(=O)Cc3ccccc3)nn2)s1 | 
200 | CN(C)c1ccc(CC(=O)Nc2nnc(CCSc3nnc(NC(=O)Cc4ccccc4)s3)s2)cc1 | 
